Source: patent US20240262815A1, “HETEROARYL DERIVATIVE, METHOD FOR PREPARING SAME, AND PHARMACEUTICAL COMPOSITION COMPRISING SAME AS ACTIVE INGREDIENT” (VORONOI INC., priority 2021, published 2024)

What follows are molecules tested on SK-BR-3 cancer cells (assay: Inhibitory activity against proliferation of SK-BR-3 cancer cells (CellTiter-Glo)). Settings: ErbB2-overexpressing SK-BR-3 cells, 120 hours after treatment.
Assay type: cell-based
Procedure: To evaluate the inhibitory activity of a compound according to the present invention against the proliferation of ErbB2-overexpressing cancer cells, the following experiment were performed.
10% FBS-added McCOY'S 5A was used for SK-BR-3 cancer cells. 20% FBS-added RPMI-1640 was used for BT-474 cancer cells. Transduced Ba/F3 cells were cultured in a RPMI-1640 medium to which 1 μg/ml puromycin (Invitrogen) was added.
48 hours before compound treatment, each type of the SK-BR-3 and BT-474 cells were seeded at 5,000 cells/well in a white clear bottom 96 well plate (Corning). The compound was diluted in dimethyl sulfoxide (SK-BR-3: 3-fold dilution, a total of 12 concentrations, BT-474: […], a total of 12 concentrations) and injected at 1 μl to have the final concentration of 0.2 nM to 5 μM. As for measurement of live cells, 120 hours after treatment with the compound, a CellTiter-Glo luminescent cell-viability reagent (Promega) was used to store the cells at room temperature for 10 minutes, followed by measurement of luminescence using a reader (SynergyNeo, Biotek). Each test was repeated three times.
The result values were calculated as a cell growth rate (%) compared to the control group. A graph was plotted using the GraphPad Prism version 8.3.0 program, and GI50 values were calculated.

| GI50 [nM] | SMILES |
| --- | --- |
| 50 to 500 | C=CC(=O)Nc1cc(Nc2cc(N3OCCC3c3cccc(-c4cccc(F)c4)c3)ncn2)c(OC)cc1N(C)CCN(C)C (centres unmarked) [Example 212, N-(2-((2-(dimeth-yl-amino)ethyl)-(methyl)amino)-5-((6-(3-(3′-fluoro-[1,1′-biphenyl]-3-yl)isoxazolidin-2-yl)pyrimidin-4-yl)amino)-4-meth-oxyphenyl)acryl-amide] |

Same assay, conditions: Homo sapiens, SK-BR-3, 120 h, ErbB2-overexpressing SK-BR-3 cells, 120 hours after treatment

| GI50 [nM] | SMILES |
| --- | --- |
| 50 to 500 | C=CC(=O)Nc1cc(Nc2cc(N3OCC[C@@H]3c3cc(F)cc(-c4cccnc4)c3)ncn2)c(OC)cc1N1CCN(C)CC1 [Example 177, (R)-N-(5-((6-(3-(3-fluoro-5-(pyr-idin-3-yl)phenyl)-isoxazolidin-2-yl)-pyrimidin-4-yl)-amino)-4-meth-oxy-2-(4-methyl-piperazin-1-yl)-phenyl)acrylamide] |
| < 50 | C=CC(=O)Nc1cc(Nc2cc(N3OCC[C@@H]3c3cc(F)cc(-c4cccnc4)c3)ncn2)c(OC)cc1N(C)CCN(C)C [Example 178, (R)-N-(2-((2-(dimethylamino)-ethyl)(methyl)-amino)-5-((6-(3-(3-fluoro-5-(pyr-idin-3-yl)phenyl)-isoxazolidin-2-yl)-pyrimidin-4-yl)-amino)-4-methoxy-phenyl)acrylamide] |
| < 50 | C=CC(=O)Nc1cc(Nc2cc(N3OCCC3c3cccc(-c4cccs4)c3)ncn2)c(OC)cc1N1CCC(N2CCN(C3CC3)CC2)CC1 (centres unmarked) [Example 182, N-(2-(4-(4-cyclo-propylpiperazin-1-yl)piperidin-1-yl)-4-methoxy-5-((6-(3-(3-(thiophen-2-yl)phenyl)isoxazol-idin-2-yl)pyrim-idin-4-yl)amino)-phenyl)acrylamide] |
| 50 to 500 | C=CC(=O)Nc1cc(Nc2cc(N3OCC[C@@H]3c3cccc(C(=O)OC4CCCCC4)c3)ncn2)c(OC)cc1N1CCC(N2CCN(C3CC3)CC2)CC1 [Example 185, cyclohexyl (R)-3-(2-(6-((5-acryl-amido-4-(4-(4-cyclopropylpiper-azin-1-yl)piper-idin-1-yl)-2-meth-oxyphenyl)amino)-pyrimidin-4-yl)-isoxazolidin-3-yl)-benzoate] |
| < 50 | C=CC(=O)Nc1cc(Nc2cc(N3OCC[C@@H]3c3cccc(-c4ccccc4)c3)ncn2)c(OC)cc1N1CCC(N2CCN(C3CC3)CC2)CC1 [Example 190, (R)-N-(5-((6-(3-([1,1′-biphenyl]-3-yl)isoxazolidin-2-yl)pyrimidin-4-yl)-amino)-2-(4-(4-cyclopropylpiper-azin-1-yl)piper-idin-1-yl)-4-meth-oxyphenyl)acryl-amide] |
| 50 to 500 | C=CC(=O)Nc1cc(Nc2cc(N3OCC[C@@H]3c3cc(F)cc(Oc4cccc(F)c4)c3)ncn2)c(OC)cc1N1CCN(C)CC1 [Example 191, (R)-N-(5-((6-(3-(3-fluoro-5-(3-fluoro-phenoxy)phenyl)-isoxazolidin-2-yl)-pyrimidin-4-yl)-amino)-4-meth-oxy-2-(4-methyl-piperazin-1-yl)-phenyl)acrylamide] |
| < 50 | C=CC(=O)Nc1cc(Nc2cc(N3OCC[C@@H]3c3cc(F)cc(-c4ccsc4)c3)ncn2)c(OC)cc1N1CCN(C)CC1 [Example 193, (R)-N-(5-((6-(3-(3-fluoro-5-(thiophen-3-yl)phenyl)isox-azolidin-2-yl)pyr-imidin-4-yl)amino)-4-methoxy-2-(4-methylpiperazin-1-yl)phenyl)acryl-amide] |
| < 50 | C=CC(=O)Nc1cc(Nc2cc(N3OCC[C@@H]3c3cc(F)cc(-c4ccsc4)c3)ncn2)c(OC)cc1N(C)CCN(C)C [Example 194, (R)-N-(2-((2-(dimethylamino)-ethyl)(methyl)-amino)-5-((6-(3-(3-fluoro-5-(thio-phen-3-yl)phenyl)-isoxazolidin-2-yl)-pyrimidin-4-yl)-amino)-4-methoxy-phenyl)acrylamide] |
| < 50 | C=CC(=O)Nc1cc(Nc2cc(N3OCC[C@@H]3c3cc(F)cc(OCc4ccccn4)c3)ncn2)c(OC)cc1N1CCN(C)CC1 [Example 195, (R)-N-(5-((6-(3-(3-fluoro-5-(pyr-idin-2-ylmethoxy)-phenyl)isoxazol-idin-2-yl)pyrim-idin-4-yl)amino)-4-methoxy-2-(4-methylpiperazin-1-yl)phenyl)-acrylamide] |
| < 50 | C=CC(=O)Nc1cc(Nc2cc(N3OCC[C@@H]3c3cc(F)cc(OCc4ccccn4)c3)ncn2)c(OC)cc1N(C)CCN(C)C [Example 196, (R)-N-(2-((2-(dimethylamino)-ethyl)(methyl)-amino)-5-((6-(3-(3-fluoro-5-(pyr-idin-2-ylmethoxy)-phenyl)isoxazol-idin-2-yl)pyrim-idin-4-yl)amino)-4-methoxyphen-yl)acrylamide] |
| < 50 | C=CC(=O)Nc1cc(Nc2cc(N3OCCC3c3cccc(-c4ccc5ncnn5c4)c3)ncn2)c(OC)cc1N1CCN(C)CC1 (centres unmarked) [Example 197, N-(5-((6-(3-(3-([1,2,4]triazolo-[1,5-a]pyridin-6-yl)phenyl)isoxazol-idin-2-yl)pyrim-idin-4-yl)amino)-4-methoxy-2-(4-methylpiperazin-1-yl)phenyl)-acrylamide] |
| < 50 | C=CC(=O)Nc1cc(Nc2cc(N3OCCC3c3cccc(-c4ccc5ncnn5c4)c3)ncn2)c(OC)cc1N(C)CCN(C)C (centres unmarked) [Example 198, N-(5-((6-(3-(3-([1,2,4]triazolo-[1,5-a]pyridin-6-yl)phenyl)isoxazol-idin-2-yl)pyrim-idin-4-yl)amino)-2-((2-(dimethyl-amino)ethyl)-(methyl)amino)-4-methoxyphen-yl)acrylamide] |
| 50 to 500 | C=CC(=O)Nc1cc(Nc2cc(N3OCC[C@@H]3c3cc(F)cc(Oc4cccc(F)c4)c3)ncn2)c(OC)cc1N(C)CCN(C)C [Example 199, (R)-N-(2-((2-(dimethylamino)-ethyl)(methyl)-amino)-5-((6-(3-(3-fluoro-5-(3-fluorophenoxy)-phenyl)isoxazol-idin-2-yl)pyrim-idin-4-yl)amino)-4-methoxyphen-yl)acrylamide] |
| < 50 | C=CC(=O)Nc1cc(Nc2cc(N3OCCC3c3cccc(-c4cnc5ccnn5c4)c3)ncn2)c(OC)cc1N(C)CCN(C)C (centres unmarked) [Example 202, N-(2-((2-(dimethyl-amino)ethyl)-(methyl)amino)-4-methoxy-5-((6-(3-(3-(pyrazolo[1,5-a]pyrimidin-6-yl)-phenyl)isoxazol-idin-2-yl)pyrim-idin-4-yl)amino)-phenyl)acrylamide] |
| < 50 | C=CC(=O)Nc1cc(Nc2cc(N3OCCC3c3cccc(-c4cccn5ccnc45)c3)ncn2)c(OC)cc1N1CCN(C)CC1 (centres unmarked) [Example 203, N-(5-((6-(3-(3-(imidazo[1,2-a]-pyridin-8-yl)phen-yl)isoxazolidin-2-yl)pyrimidin-4-yl)amino)-4-meth-oxy-2-(4-methyl-piperazin-1-yl)-phenyl)acrylamide] |
| < 50 | C=CC(=O)Nc1cc(Nc2cc(N3OCCC3c3cccc(-c4cccn5ccnc45)c3)ncn2)c(OC)cc1N(C)CCN(C)C (centres unmarked) [Example 204, N-(2-((2-(dimeth-ylamino)ethyl)-(methyl)amino)-5-((6-(3-(3-(imidazo-[1,2-a]pyridin-8-yl)phenyl)isoxazol-idin-2-yl)pyrim-idin-4-yl)amino)-4-methoxyphen-yl)acrylamide] |
| 500 to 5000 | C=CC(=O)Nc1cc(Nc2cc(N3OCC[C@@H]3c3cc(F)cc(-c4cccc(F)c4)c3)ncn2)c(OC)cc1N1CCC(N2CCN(C3CC3)[C@H](C)C2)CC1 [Example 206] |
| < 50 | C=CC(=O)Nc1cc(Nc2cc(N3OCC[C@@H]3c3cc(F)cc(-c4cccc(F)c4)c3)ncn2)c(OC)cc1N1CCC(N2CCOCC2)CC1 [Example 207, (R)-N-(5-((6-(3-(3′,5-difluoro-[1,1′-biphenyl]-3-yl)isoxazolidin-2-yl)pyrimidin-4-yl)-amino)-4-methoxy-2-(4-morpholino-piperidin-1-yl)-phenyl)acrylamide] |
| < 50 | C=CC(=O)Nc1cc(Nc2cc(N3OCC[C@@H]3c3cc(F)cc(-c4cccc(F)c4)c3)ncn2)c(OC)cc1N(C)CCN(C)C [Example 208, (R)-N-(5-((6-(3-(3′,5-difluoro-[1,1′-biphenyl]-3-yl)-isoxazolidin-2-yl)-pyrimidin-4-yl)-amino)-2-((2-(dimethylamino)-ethyl)(methyl)-amino)-4-methoxy-phenyl)acrylamide] |
| < 50 | C=CC(=O)Nc1cc(Nc2cc(N3OCC[C@@H]3c3cc(F)cc(-c4cccc5ncnn45)c3)ncn2)c(OC)cc1N1CCN(C)CC1 [Example 209, (R)-N-(5-((6-(3-(3-([1,2,4]triazolo-[1,5-a]pyridin-5-yl)-5-fluorophen-yl)isoxazolidin-2-yl)pyrimidin-4-yl)-amino)-4-methoxy-2-(4-methylpiper-azin-1-yl)phenyl)-acrylamide] |
| < 50 | C=CC(=O)Nc1cc(Nc2cc(N3OCC[C@@H]3c3cc(F)cc(-c4cccc5ncnn45)c3)ncn2)c(OC)cc1N(C)CCN(C)C [Example 210, (R)-N-(5-((6-(3-(3-([1,2,4]triazolo-[1,5-a]pyridin-5-yl)-5-fluorophen-yl)isoxazolidin-2-yl)pyrimidin-4-yl)-amino)-2-((2-(dimethylamino)-ethyl)(methyl)-amino)-4-methoxy-phenyl)acrylamide] |
| 50 to 500 | C=CC(=O)Nc1cc(Nc2cc(N3OCCC3c3cccc(-c4cccc(F)c4)c3)ncn2)c(OC)cc1N1CCN(C)CC1 (centres unmarked) [Example 211, N-(5-((6-(3-(3′-fluoro-[1,1′-biphenyl]-3-yl)-isoxazolidin-2-yl)-pyrimidin-4-yl)-amino)-4-methoxy-2-(4-methylpiper-azin-1-yl)phenyl)-acrylamide] |
